This is an account of results in patent US12311058B2, “Single protein-encapsulated pharmaceutics for enhancing therapeutic effects” (priority 2018, dated 2025).

A short description of series [1]: Dialysis study on free form of doxorubicin, HSA/DOX mixture and Composition 7. Conditions: PBS pH=7.4. In kind it is physicochemical. Here is the method: The dialysis tube was sealed and put into a glass beaker containing 100 mL of either PBS buffer (pH=7.4) or acetate buffer (pH=5.5) with a magnetic stirring bar. With constant stirring, aliquots (500 uL) at different time points were taken from the glass beaker and analyzed by UV spectrometer. […] It is most interesting to notice that HSA-encapsulated DOX is almost 3.5 times faster at pH=5.5 than at pH=7.4 for being dialyzed out from the dialysis tube.

The subject of series [2] is breast cancer cell line, MDA-MB231. Nature of the series: Xenograft model efficacy study, breast cancer MDA-MB231, in female athymic nude mice. Conditions: iv; for % TGI, percent tumor growth inhibition compared to Group 1 / MTV (n) Day 20, median tumor volume: Doxorubicin 5, Composition 7 10, Mitoxantrone 3, Composition 6 6 mg/kg, Day 20. The procedure:
An efficacy study against breast cancer tumor was carried out on the materials from Example 8 (Composition 7) and Example 7 (Composition 6).

For series [3] the following is noted: mouse model, documented; cited from earlier work.
For series [4] the following is noted: congestive heart failure incidents; cited from earlier work.

Take `COc1cccc2c1C(=O)c1c(O)c3c(c(O)c1C2=O)C[C@@](O)(C(=O)CO)C[C@@H]3O[C@H]1C[C@H](N)[C@H](O)[C@H](C)O1` [Doxorubicin, doxorubicin]: the “Dialysis behaviour of free form” value in series [1] is recorded as “precipitated in the dialysis bag due to the poor solubility at pH=7.4”. In addition, in series [2] (qwk × 3, 20 day study), the “Deaths NTR (non-treatment-related death)” value turned out to be 0, the “Deaths TR (treatment-related death)” value is 0, the “Regressions CR (complete regression)” value is 0 and the “Regressions PR (partial regression)” value came out at 0. Further, in series [2] (qwk × 3), the “% TGI, percent tumor growth inhibition compared to Group 1” value was 34% and the “MTV (n) Day 20, median tumor volume” value was 453 (8) mm^2. The “Maximum tolerated dose (MTD)” value in series [3] is 5 mg/kg. Also, in series [4], the “Lifetime limit (cumulative dose)” value was less than 450 mg/m^2.
Regarding `O=C1c2c(O)ccc(O)c2C(=O)c2c(NCCNCCO)ccc(NCCNCCO)c21` [Mitoxantrone, mitoxantrone], in series [2] (qwk × 3, 20 day study), the “Deaths NTR (non-treatment-related death)” value was determined as 0; the “Deaths TR (treatment-related death)” value was found to be 0; the “Mean BW Nadir, lowest group mean body weight as % change from Day 1” value is −0.2%; the “Regressions CR (complete regression)” value is given as 0. For the same compound, in series [2] (qwk × 3, 20 day study), the “Regressions PR (partial regression)” value amounted to 0. In addition, in series [2] (qwk × 3), the “% TGI, percent tumor growth inhibition compared to Group 1” value amounted to 27% and the “MTV (n) Day 20, median tumor volume” value is recorded as 498 (8) mm^2. Further, in series [2] (mouse, in vivo), the “Day of Mean BW Nadir” value came out at 8 days. Moreover, the “Maximum tolerated dose (MTD)” value in series [3] is recorded as 3 mg/kg.
